PMC9569529, “Safe and Efficient Sigma1 Ligand: A Potential Drug Candidate for Multiple Sclerosis” (International Journal of Molecular Sciences, 2022)

Key:
[1] = Microsomal stability in human liver microsomes; assay type: in vitro ADME; details: hLM; for half-life at 10 µM / microsomal CLint at 10 µM: human, liver microsomes
Method: Metabolic stability analysis (mouse and human liver microsomes) was performed by Eurofins Cerep (Poitiers, France) at 10 µM as described in [55]. Results were obtained at 15, 30, 45 and 60 min. Results were expressed as percent of the parent compound remaining, and calculated by comparing the peak area of the compound at the time point relative to that at time 0. The half-life (t1/2) and the apparent intrinsic clearance (CLint) were evaluated.
Metabolite identification was performed by HPLC-High Resolution mass spectrometry (MS). Chromatographic separation was performed on an Accela UPLC system (Thermo Fisher Scientific Inc. Waltham, MA, USA) equipped with an ACE 3 C18-AR column (100 × 2.1 mm, particle size 3 μm; AIT, Cormeilles-en-Parisis, France) preceded by a guard column (same stationary phase). The elution was performed with a gradient mode using water (solvent A) and ACN (solvent B), all acidified with 0.1% formic acid. The linear gradient elution program was as follows: 10% of B for 2 min; linear increase from 10 to 90% of solvent B for 20 min; 1 min at 90% of B; and 2 min of re-equilibration with 10% of B for a total run of 25 min. The LC flow rate was 400 µL/min and the injection volume was 10 μL. The column oven temperature was 30 °C and the sample tray temperature 4 °C. Eluted compounds were detected in positive mode by a full mass scan (m/z 200 to 500) using a Orbitrap Mass Spectrometer Exactive (Thermo Fisher Scientific Inc. Waltham, MA, USA) equipped with a heated electrospray ionization source (HESI-II). Instrument parameters were as follows: sheath gas 35, auxiliary gas 10 (both arbitrary units), spray voltage 2.4 kV, capillary temperature 275 °C, capillary voltage 67.5 V, tube lens voltage 120 V, skimmer voltage 24 V and source temperature 350 °C. Mass spectra were recorded at an ultra-high resolution (100,000). Instrument control, data acquisition and processing were performed using the associated Thermo Scientific software package (Xcalibur v.2.2 and Exactive v1.1).

[2] = Plasma stability; assay type: in vitro ADME; details: male, CD-1, mouse, 37 °C, read-out: Plasma t½ (converted)
Method: Plasma stability analyses were performed by M2SV (Lille, France). Incubations were performed in duplicate. The plasma (male mouse plasma CD-1, lithium-heparinized, from Sera Laboratories International Ltd. BioIVT, West Sussex, UK) was pre-incubated for 10 min at 37 °C before addition of the compound to a final concentration of 10 µM (0,1% DMSO). At the defined time points (0, 60, 1440 and 2880 min), fractions from each tube were transferred to fresh tubes containing cold CH3CN and an internal standard (Propanolol at 1 µM). After vigorous agitation and centrifugation (10 min at 10,000 rpm), the supernatants were analyzed. The degradation half-life (t1/2) values were calculated in minutes and hours via non-linear regression analysis using Microsoft® XLfit® Excel add-in from IDBS Ltd, Woking, UK.

[3] = target: T1, CYP1A (Homo sapiens, UniProt P05177); test: CYP inhibition in human liver microsomes; assay type: in vitro ADME; details: read-out: CYPs inhibition CYP1A
T1 construct: tissue Eurofins Cerep (CRO); host or cells: human liver microsomes
Method: (§1) The compound was classically evaluated at 10 µM for all the ADME analyses. Bidirectional permeability (apical A to basolateral B pH 6.5/7.4 and basolateral B to apical A pH 7.4/6.5) was assessed in the epithelial colorectal adenocarcinoma cell line (Caco-2 cell line). Results were expressed as × 10^−6cm/s (Papp) and as % recovery. Efflux ratio, i.e., Papp(B-A)/Papp(A-B), was calculated. Plasma protein binding was analyzed by HPLC-MS/MS after 4-h incubation at 37 °C, as described by Banker et al.. Concentration was evaluated by LC/MS-MS. CYP inhibition was performed in human liver microsomes as described in [61]. Analysis of the respective metabolites. was performed by HPLC-MS/MS. Transporter inhibition analysis was also performed in overexpressing cell lines. Respective metabolites for each specific transporter substrate were analyzed by fluorometry or scintillation counting and % inhibition of control values were calculated. P-glycoprotein transporter substrate assessment was performed by bidirectional permeability analysis (apical A to basolateral B pH 7.4/7.4 and basolateral B to apical A pH 7.4/7.4) in the Caco-2 cell line with and without verapamil, as described in [59]. Results were expressed as ×10^−6 cm/s (Papp) and as % recovery. The efflux ratio, i.e., Papp(B-A)/Papp(A-B), was calculated. CYP450 induction characterization was performed on human hepatocytes. The mRNA levels of 7 different CYPs were analyzed by qPCR, as described in [72]. The compound was evaluated at 1, 10 and 100 µM. Fold-induction values were determined and compared to cut-off values, as defined for each CYP isozyme in each hepatocyte lot.

[4] = target: T2, CYP2B6 (Homo sapiens, UniProt P20813); test: CYP inhibition in human liver microsomes; assay type: in vitro ADME; details: read-out: CYPs inhibition CYP2B6
T2 construct: tissue Eurofins Cerep (CRO); host or cells: human liver microsomes
Method: as §1

[5] = target: T3, CYP2C19 (Homo sapiens, UniProt P33261); test: CYP inhibition in human liver microsomes; assay type: in vitro ADME; details: read-out: CYPs inhibition CYP2C19
T3 construct: tissue Eurofins Cerep (CRO); host or cells: human liver microsomes
Method: as §1

[6] = target: T4, CYP2C8 (Homo sapiens, UniProt P10632); test: CYP inhibition in human liver microsomes; assay type: in vitro ADME; details: read-out: CYPs inhibition CYP2C8
T4 construct: tissue Eurofins Cerep (CRO); host or cells: human liver microsomes
Method: as §1

[7] = target: T5, CYP2C9 (Homo sapiens, UniProt P11712); test: CYP inhibition in human liver microsomes; assay type: in vitro ADME; details: read-out: CYPs inhibition CYP2C9
T5 construct: tissue Eurofins Cerep (CRO); host or cells: human liver microsomes
Method: as §1

[8] = target: T6, CYP2D6 (Homo sapiens, UniProt P10635); test: CYP inhibition in human liver microsomes; assay type: in vitro ADME; details: read-out: CYPs inhibition CYP2D6
T6 construct: tissue Eurofins Cerep (CRO); host or cells: human liver microsomes
Method: as §1

[9] = system: CYP3A; test: CYP inhibition in human liver microsomes; assay type: in vitro ADME; details: read-out: CYPs inhibition CYP3A
Method: as §1

[10] = system: S. typhimurium TA98; test: Ames test; details: 7i 40 µg/plate

T4 sequence (P10632 whole entry): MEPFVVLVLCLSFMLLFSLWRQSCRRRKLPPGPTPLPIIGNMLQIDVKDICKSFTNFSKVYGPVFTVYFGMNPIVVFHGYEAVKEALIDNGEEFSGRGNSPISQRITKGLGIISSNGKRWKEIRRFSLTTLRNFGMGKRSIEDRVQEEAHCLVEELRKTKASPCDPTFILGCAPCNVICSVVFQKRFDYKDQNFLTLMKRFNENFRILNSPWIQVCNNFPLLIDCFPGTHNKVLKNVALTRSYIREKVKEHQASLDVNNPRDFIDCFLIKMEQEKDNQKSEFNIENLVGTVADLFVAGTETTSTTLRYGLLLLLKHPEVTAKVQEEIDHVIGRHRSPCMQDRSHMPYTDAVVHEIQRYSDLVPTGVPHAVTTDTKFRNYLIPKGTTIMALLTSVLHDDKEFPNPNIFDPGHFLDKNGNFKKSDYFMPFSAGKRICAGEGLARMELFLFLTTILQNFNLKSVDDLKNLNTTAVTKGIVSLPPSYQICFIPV
T1 sequence (P05177 2-516 limits assumed): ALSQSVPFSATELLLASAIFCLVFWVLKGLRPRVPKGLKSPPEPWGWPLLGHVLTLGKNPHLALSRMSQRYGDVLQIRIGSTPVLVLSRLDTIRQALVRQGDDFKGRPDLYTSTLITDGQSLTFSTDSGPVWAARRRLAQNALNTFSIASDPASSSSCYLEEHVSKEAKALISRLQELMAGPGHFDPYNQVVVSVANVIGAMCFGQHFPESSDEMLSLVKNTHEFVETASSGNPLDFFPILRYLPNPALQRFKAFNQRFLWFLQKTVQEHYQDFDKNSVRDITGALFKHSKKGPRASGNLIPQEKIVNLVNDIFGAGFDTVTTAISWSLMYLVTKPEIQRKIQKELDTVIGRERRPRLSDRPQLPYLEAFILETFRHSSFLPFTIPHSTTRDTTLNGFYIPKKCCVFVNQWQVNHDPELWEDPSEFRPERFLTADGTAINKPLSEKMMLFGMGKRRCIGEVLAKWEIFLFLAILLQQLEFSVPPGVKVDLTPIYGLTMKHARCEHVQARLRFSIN
T5 sequence (P11712 whole entry): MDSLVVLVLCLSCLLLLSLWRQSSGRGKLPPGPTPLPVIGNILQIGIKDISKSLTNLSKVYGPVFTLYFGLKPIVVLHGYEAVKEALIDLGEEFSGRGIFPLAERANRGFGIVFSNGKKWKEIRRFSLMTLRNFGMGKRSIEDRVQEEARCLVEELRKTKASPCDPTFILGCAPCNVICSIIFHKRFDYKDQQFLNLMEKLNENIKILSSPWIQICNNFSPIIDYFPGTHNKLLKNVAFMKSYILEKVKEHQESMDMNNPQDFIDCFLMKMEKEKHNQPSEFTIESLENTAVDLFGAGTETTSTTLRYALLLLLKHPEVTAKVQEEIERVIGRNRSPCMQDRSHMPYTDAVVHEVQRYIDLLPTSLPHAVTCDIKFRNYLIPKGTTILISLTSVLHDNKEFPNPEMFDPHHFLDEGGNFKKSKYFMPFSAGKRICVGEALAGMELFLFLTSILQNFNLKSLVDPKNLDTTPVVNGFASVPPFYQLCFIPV
T3 sequence (P33261 whole entry): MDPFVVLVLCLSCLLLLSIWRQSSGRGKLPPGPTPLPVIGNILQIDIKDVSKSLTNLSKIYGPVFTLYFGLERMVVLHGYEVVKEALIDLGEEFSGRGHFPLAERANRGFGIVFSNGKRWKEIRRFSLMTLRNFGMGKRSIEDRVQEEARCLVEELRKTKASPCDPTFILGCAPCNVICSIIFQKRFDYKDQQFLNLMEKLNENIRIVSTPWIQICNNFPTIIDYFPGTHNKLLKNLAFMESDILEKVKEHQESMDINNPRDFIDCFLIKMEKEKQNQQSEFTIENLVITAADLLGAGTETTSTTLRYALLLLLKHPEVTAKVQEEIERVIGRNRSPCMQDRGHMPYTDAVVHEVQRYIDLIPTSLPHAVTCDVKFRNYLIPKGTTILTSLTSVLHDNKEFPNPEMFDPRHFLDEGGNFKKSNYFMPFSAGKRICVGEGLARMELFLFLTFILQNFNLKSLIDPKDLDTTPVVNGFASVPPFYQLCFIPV
T6 sequence (P10635 whole entry): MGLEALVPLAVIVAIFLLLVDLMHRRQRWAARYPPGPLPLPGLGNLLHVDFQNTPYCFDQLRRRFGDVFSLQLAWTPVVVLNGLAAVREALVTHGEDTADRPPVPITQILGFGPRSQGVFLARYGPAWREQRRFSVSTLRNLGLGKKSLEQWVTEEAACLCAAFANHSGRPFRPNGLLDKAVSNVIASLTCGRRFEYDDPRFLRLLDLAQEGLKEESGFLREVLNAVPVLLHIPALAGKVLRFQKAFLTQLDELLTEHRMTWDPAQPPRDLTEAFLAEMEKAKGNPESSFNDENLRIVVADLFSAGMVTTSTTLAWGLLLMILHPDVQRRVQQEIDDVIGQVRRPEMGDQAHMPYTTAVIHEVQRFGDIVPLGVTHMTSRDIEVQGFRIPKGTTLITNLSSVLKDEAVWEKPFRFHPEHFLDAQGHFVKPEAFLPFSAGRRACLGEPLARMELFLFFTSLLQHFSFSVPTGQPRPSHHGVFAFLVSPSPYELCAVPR
T2 sequence (P20813 whole entry): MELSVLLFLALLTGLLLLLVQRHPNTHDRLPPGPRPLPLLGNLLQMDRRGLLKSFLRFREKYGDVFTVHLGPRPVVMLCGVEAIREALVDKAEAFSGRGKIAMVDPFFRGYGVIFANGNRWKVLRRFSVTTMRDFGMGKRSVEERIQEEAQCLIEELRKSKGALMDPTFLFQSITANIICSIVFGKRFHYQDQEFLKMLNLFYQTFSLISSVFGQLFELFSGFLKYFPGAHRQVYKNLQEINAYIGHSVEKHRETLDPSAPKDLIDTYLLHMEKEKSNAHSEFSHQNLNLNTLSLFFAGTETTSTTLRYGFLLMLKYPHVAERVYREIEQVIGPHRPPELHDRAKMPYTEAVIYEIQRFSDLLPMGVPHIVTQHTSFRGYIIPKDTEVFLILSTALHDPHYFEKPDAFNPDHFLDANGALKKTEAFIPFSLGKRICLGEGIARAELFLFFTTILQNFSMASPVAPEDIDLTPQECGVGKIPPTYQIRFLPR

| t1/2 ([1]; 10 µM) [h] | SMILES | Compound Remaining (1 h, %) ([1]; 10 µM) [%] | half-life at 10 µM [1] [min] | microsomal CLint at 10 µM [1] [µL/min/mg] | half-life at 10 µM [2] [min] | inhibition at 10 µM [3] [%] | inhibition at 10 µM [4] [%] | inhibition at 10 µM [5] [%] | inhibition at 10 µM [6] [%] | inhibition at 10 µM [7] [%] | inhibition at 10 µM [8] [%] | inhibition at 10 µM [9] [%] | Ames TA98 +S9 (Mean revertants/well per title) ([10]; +S9, positive control 2-anthramine 0.5) | Ames TA98 −S9 (Mean revertants/well per title) ([10]; −S9, positive control 2-nitrofluorene 0.5) |
| --- | --- | --- | --- | --- | --- | --- | --- | --- | --- | --- | --- | --- | --- | --- |
| 10.0 | O=C(NCCCNCc1ccccc1)c1ccc(Cl)cc1 [compound 7i-deMe] | 83 | > 540 | < 115 | 1380 | 9.4 | 15.9 | 18.4 | -7.2 | 5.9 | 91.6 | 3.2 |  |  |
|  | CN(CCCNC(=O)c1ccc(Cl)cc1)Cc1ccccc1 [compound 7i] | 66 | > 60 | < 115 | > 1440 | 2.1 | -4.3 | 36.5 | -9.2 | -7.2 | 95.1 | 36.9 | 1.1 | 1.1 |
